Results published in US8022102B2, “Unsaturated tetracyclic tetrahydrofuran derivatives” (Janssen Pharmaceutica, NV, priority 2004, dated 2011).
Where two headings read alike, the source gives them in different places.

What was measured:
[1] = target: T1, human cloned 5-HT2A receptor (Homo sapiens, UniProt P28223); experiment: In vitro binding affinity for 5-HT2A receptor (radioligand binding); conditions: human cloned 5-HT2A receptor, radioligand binding
T1 construct: expressed in transfected cells; host or cells: L929 cells
Protocol: During the incubation, the radioligands bind to the receptor. When equilibrium of binding is reached, the receptor bound radioactivity is separated from the non-bound radioactivity, and the receptor bound activity is counted. The interaction of the test compounds with the receptors is assessed in competition binding experiments. Various concentrations of the test compound are added to the incubation mixture containing the tissue preparation and the radioligand. Binding of the radioligand will be inhibited by the test compound in proportion to its binding affinity and its concentration. The affinities of the compounds for the 5-HT2 receptors were measured by means of radioligand binding studies conducted with: (a) human cloned 5-HT2A receptor, expressed in L929 cells using [^125I]R91150 as radioligand and (b) human cloned 5-HT2C receptor, expressed in CHO cells using [^3H]mesulergine as radioligand.

[2] = target: T2, human Dopamine D2L receptor (Homo sapiens, UniProt P14416); experiment: In vitro binding affinity for human D2L receptor ([3H]Spiperone); conditions: human D2L receptor-transfected CHO cell membranes, [3H]Spiperone; read-out: h-D2L (converted)
T2 construct: expressed in transfected cells; host or cells: CHO cells
Protocol: Frozen membranes of human Dopamine D2L receptor-transfected CHO cells were thawed, briefly homogenised using an Ultra-Turrax T25 homogeniser and diluted in Tris-HCl assay buffer containing NaCl, CaCl2, MgCl2, KCl (50, 120, 2, 1, and 5 mM respectively, adjusted to pH 7.7 with HCl) to an appropriate protein concentration optimised for specific and non-specific binding. Radioligand [^3H]Spiperone (NEN, specific activity ˜70 Ci/mmol) was diluted in assay buffer at a concentration of 2 nmol/L. Prepared radioligand (50 μl), along with 50 μl of either the 10% DMSO control, Butaclamol (10^−6 mol/l final concentration), or compound of interest, was then incubated (30 min, 37° C.) with 400 μl of the prepared membrane solution. Membrane-bound activity was filtered through a Packard Filtermate harvester onto GF/B Unifilterplates and washed with ice-cold Tris-HCl buffer (50 mM; pH 7.7; 6×0.5 ml). Filters were allowed to dry before adding scintillation fluid and counting in a Topcount scintillation counter. Percentage specific bound and competition binding curves were calculated using S-Plus software (Insightful).

[3] = target: T3, human cloned 5-HT2C receptor (Homo sapiens, UniProt P28335); experiment: In vitro binding affinity for 5-HT2C receptor (radioligand binding); conditions: human cloned 5-HT2C receptor, radioligand binding
T3 construct: expressed in transfected cells; host or cells: CHO cells
T3 sequence (P28335 33-458): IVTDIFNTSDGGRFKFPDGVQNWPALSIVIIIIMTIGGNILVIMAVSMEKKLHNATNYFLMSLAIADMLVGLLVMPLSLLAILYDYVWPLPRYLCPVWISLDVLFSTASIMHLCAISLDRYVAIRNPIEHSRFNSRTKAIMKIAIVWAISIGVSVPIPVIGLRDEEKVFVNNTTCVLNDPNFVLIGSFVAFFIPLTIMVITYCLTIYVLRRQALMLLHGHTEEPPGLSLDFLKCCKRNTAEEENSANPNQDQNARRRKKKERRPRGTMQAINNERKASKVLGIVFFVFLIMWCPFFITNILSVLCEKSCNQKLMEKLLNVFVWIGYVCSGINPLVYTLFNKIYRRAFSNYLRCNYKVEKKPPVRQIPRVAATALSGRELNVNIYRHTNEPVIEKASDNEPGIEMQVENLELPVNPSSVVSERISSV
Protocol: During the incubation, the radioligands bind to the receptor. When equilibrium of binding is reached, the receptor bound radioactivity is separated from the non-bound radioactivity, and the receptor bound activity is counted. The interaction of the test compounds with the receptors is assessed in competition binding experiments. Various concentrations of the test compound are added to the incubation mixture containing the tissue preparation and the radioligand. Binding of the radioligand will be inhibited by the test compound in proportion to its binding affinity and its concentration.

T2 sequence (P14416 whole entry): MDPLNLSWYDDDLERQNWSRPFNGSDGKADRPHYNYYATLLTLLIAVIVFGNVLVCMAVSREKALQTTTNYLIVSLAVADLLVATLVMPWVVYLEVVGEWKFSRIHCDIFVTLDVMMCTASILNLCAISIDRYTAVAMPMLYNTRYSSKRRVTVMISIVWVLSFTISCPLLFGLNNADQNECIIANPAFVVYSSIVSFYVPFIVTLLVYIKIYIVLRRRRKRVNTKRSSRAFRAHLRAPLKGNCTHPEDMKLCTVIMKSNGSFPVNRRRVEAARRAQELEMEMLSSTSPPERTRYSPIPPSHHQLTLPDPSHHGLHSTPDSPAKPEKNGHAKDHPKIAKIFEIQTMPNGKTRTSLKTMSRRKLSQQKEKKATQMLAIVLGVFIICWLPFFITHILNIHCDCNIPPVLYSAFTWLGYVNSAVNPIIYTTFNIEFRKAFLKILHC
T1 sequence (P28223 whole entry): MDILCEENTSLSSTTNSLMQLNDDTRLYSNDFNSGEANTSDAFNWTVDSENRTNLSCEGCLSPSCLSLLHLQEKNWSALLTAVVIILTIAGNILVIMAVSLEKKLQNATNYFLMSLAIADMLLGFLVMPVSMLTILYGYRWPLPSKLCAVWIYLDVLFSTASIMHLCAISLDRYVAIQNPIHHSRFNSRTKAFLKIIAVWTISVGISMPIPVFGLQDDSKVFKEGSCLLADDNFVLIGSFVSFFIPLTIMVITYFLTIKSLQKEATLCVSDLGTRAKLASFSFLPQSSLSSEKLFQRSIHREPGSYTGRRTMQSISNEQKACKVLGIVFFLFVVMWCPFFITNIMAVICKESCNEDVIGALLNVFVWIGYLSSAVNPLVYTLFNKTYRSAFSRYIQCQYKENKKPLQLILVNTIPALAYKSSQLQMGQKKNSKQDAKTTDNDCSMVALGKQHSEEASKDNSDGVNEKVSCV

IC50 ([1]; read-out: h-5HT2A (converted)) [nM] | IC50 [2] [nM] | IC50 ([3]; read-out: h-5HT2C (converted)) [nM] | Structure (SMILES) | IC50 ([1]; h-5HT2A) [nM] | IC50 ([3]; h-5HT2C) [nM]
5.01 | 10 | 12.6 | OCCN1CCN(CC2CC3=C(O2)c2cc(F)ccc2Cc2ccccc23)CC1 (stereo not shown) [Compound 41] | – | –
3.16 | 200 | 3.98 | CNCC1CC2=C(O1)c1cc(F)ccc1Sc1ccccc12 (single isomer, unassigned) [Compound 13] | – | –
10 | 2510 | 2 | CN(CC(=O)N(C)C)C[C@H]1CC2=C(O1)c1cc(F)ccc1Cc1ccccc12 [Compound 117] | – | –
– | 158 | 1.26 | CN(C)CC1CC2=C(O1)c1ccccc1Cc1ccccc12 (single isomer, unassigned) [Compound 24] | – | –
31.6 | 1000 | 50.1 | O=C(Nc1ccccc1)N1CCN(CC2CC3=C(O2)c2cc(F)ccc2Oc2ccccc23)CC1 (stereo not shown) [Compound 84] | – | –
3.98 | – | 3.98 | CN(C)CC1CC2=C(O1)c1ccccc1Cc1ccccc12 (stereo not shown) [Compound 22] | – | –
39.8 | 1000 | 79.4 | O=C(NC1CCCCC1)N1CCN(CC2CC3=C(O2)c2cc(F)ccc2Oc2ccccc23)CC1 (stereo not shown) [Compound 80] | – | –
15.8 | – | 25.1 | CN(CCO)CC1CC2=C(O1)c1cc(F)ccc1Oc1ccccc12 (stereo not shown) [Compound 32] | – | –
39.8 | > 10000 | – | CN(C[C@H]1CC2=C(O1)c1cc(F)ccc1Cc1ccccc12)C1CC(=O)NC1=O (mixture of isomers) [Compound 124] | – | –
3.98 | 126 | – | CCCCNC(=O)N1CCN(CC2CC3=C(O2)c2cc(F)ccc2Cc2ccccc23)CC1 (stereo not shown) [Compound 77] | – | –
0.126 | 10 | – | OC1CCN(CC2CC3=C(O2)c2cc(F)ccc2Sc2ccccc23)C1 (stereo not shown) [Compound 34] | – | –
39.8 | 1580 | – | O=C(NC1CCCCC1)N1CCN(CC2CC3=C(O2)c2cc(F)ccc2Cc2ccccc23)CC1 (stereo not shown) [Compound 79] | – | –
– | 1580 | 15.8 | CN(C)CC1CC2=C(O1)c1ccccc1Cc1ccccc12 (single isomer, unassigned) [Compound 23] | – | –
3.16 | 100 | – | O=C(Nc1ccc(F)cc1)N1CCN(CC2CC3=C(O2)c2cc(F)ccc2Cc2ccccc23)CC1 (stereo not shown) [Compound 85] | – | –
79.4 | – | 50.1 | CCCCNC(=O)N1CCN(CC2CC3=C(O2)c2cc(F)ccc2Oc2ccccc23)CC1 (stereo not shown) [Compound 78] | – | –
7.94 | – | 2.51 | CN(C)CC1CC2=C(O1)c1cc(Br)ccc1Oc1ccccc12 (stereo not shown) [Compound 27] | – | –
1.58 | – | 0.794 | NCC1CC2=C(O1)c1cc(F)ccc1Cc1ccccc12 (stereo not shown) [Compound 1] | – | –
2.51 | – | 1.58 | CN(CCO)CC1CC2=C(O1)c1cc(F)ccc1Cc1ccccc12 (stereo not shown) [Compound 31] | – | –
10 | – | 7.94 | CN(C)CC1CC2=C(O1)c1cc(F)ccc1Oc1ccccc12 (stereo not shown) [Compound 26] | – | –
31.6 | – | 100 | CC(=O)N1CCN(CC2CC3=C(O2)c2cc(F)ccc2Oc2ccccc23)CC1 (stereo not shown) [Compound 54] | – | –
31.6 | 251 | – | CCCCc1ccc2c(c1)C1=C(CC(CNC)O1)c1ccccc1C2 (stereo not shown) [Compound 6] | – | –
– | – | 0.2 | CNCC1CC2=C(O1)c1cc(F)ccc1Sc1ccccc12 (single isomer, unassigned) [Compound 14] | – | –
– | – | – | CN(C[C@H]1CC2=C(O1)c1cc(F)ccc1Cc1ccccc12)C(=O)Oc1ccccc1 [Compound 111] | 200 | 3.98
0.398 | 12.6 | – | CN(C)CC1CC2=C(O1)c1cc(F)ccc1Sc1ccccc12 (stereo not shown) [Compound 28] | – | –

Structure (SMILES) | IC50 ([1]; read-out: h-5HT2A (converted)) [nM] | IC50 [2] [nM] | IC50 ([3]; read-out: h-5HT2C (converted)) [nM] | IC50 ([1]; h-5HT2A) [nM] | IC50 ([3]; h-5HT2C) [nM]
CCOC(=O)N1CCN(CC2CC3=C(O2)c2cc(F)ccc2Oc2ccccc23)CC1 (stereo not shown) [Compound 62] | 79.4 | 631 | 200 | – | –
CN(C)C(=O)N1CCN(CC2CC3=C(O2)c2cc(F)ccc2Oc2ccccc23)CC1 (stereo not shown) [Compound 76] | 50.1 | 251 | 158 | – | –
